According to paper PMC7559897, “Designed Antimicrobial Peptides Against Trauma-Related Cutaneous Invasive Fungal Wound Infections” (Journal of Fungi, 2020):
Values after ≈ are worked out from the molar mass of the structure shown. Bridge positions count the residues as written; N and C are the ends. Square brackets hold non-standard residues; d marks the D form. Peptide text beside a SMILES is read from it. Orn = NCCC[C@H](N)C(=O)O

Key:
[1] = system: P. aeruginosa 19660 (Xen5 luciferase); assay: Bioluminescent time-kill assay; type: cell-based, Pseudomonas aeruginosa; conditions: 8 μg/mL, bioluminescence
Source text: (§1) Fungal and bacterial strains were obtained from American Type Culture Collection (ATCC, Manassas, VA, USA) or the clinical isolate collection at Trideum Biosciences (Frederick, MD, USA) and are presented in Table 1 and Table 2, respectively. Bioluminescence strains of P. aeruginosa 19660, transfected with the Xen5 luciferase gene, and S. aureus ATCC R 49525TM (Wright), transfected with the Xen36 luciferase gene, were obtained from Perkin Elmer (Waltham, MA, USA).
(§2) Real-time killing of bacterial cells, P. aeruginosa or S. aureus, and mammalian cytotoxicity to assess dAMP off-target toxicity was evaluated using bioluminescent cells. The L929 fibroblast cells (ATCC, Manassas, VA, USA) were made bioluminescent by transfection with a luciferase gene. Cells (1 × 10^4 cells, 100 μL) were plated in 96-well black-walled plates and the candidate dAMPs were 2-fold serially diluted from specified concentrations in growth medium supplemented with 150 μg/mL D-luciferin. Each concentration was performed in triplicate, with the final volume being 200 μL. Imaging was performed at select times after the addition of the dAMP, and compared to concurrently run vehicle-control, using an IVIS Lumina imaging system (Caliper Life Sciences, Inc., Hopkinton, MA, USA). For imaging, the 96-well plate was positioned on the stage (12.5-cm field of view), with an open emission filter, binning of 4, and f-stop 1 and a 1-min exposure time. Monitoring bioluminescence allows assessment of the kinetics of cellular viability as there is a tight correlation between the bioluminescent signal and cell viability. Data analysis was performed using the Living Image software program (version 4.3, Caliper Life Sciences, Inc., Hopkinton, MA, USA).
(§3) Figure 3 RP553, RP556, RP557 rapidly destroy P. aeruginosa and S. aureus. The bioluminescence of viable P. aeruginosa 19,660 and S. aureus 49,525 cells was quantitated in real time with an IVIS Lumina bioimaging system. Data represent the mean ± SE of triplicate replicates from two independent experiments. For some points, the error bars are shorter than the height of the symbols.

[2] = system: Mucor circinelloides NRRL 3631; type: cell-based; conditions: NRRL 3631, 24 h
Protocol: (§4) Assays were performed by Trideum Biosciences (Frederick, MD, USA). Isolates were thawed from −80 °C storage and sub-cultured on trypticase soy agar plates at 37 °C prior to experimentation. A single colony was aseptically picked from the agar plate and released in 30 mL trypticase soy broth and incubated overnight at 37 °C incubator. Following which the bacterial culture was diluted to approximately 10^6 colony forming units (CFU)/mL using 2X cation adjusted Mueller–Hinton broth and added to the dAMP solutions (0, 2, 4, 8, 16, 32, 64, and 128 μg/mL) which had been formulated in water at 256 μg/mL and then serially diluted in media on 96-well pates. For fungal evaluation, potato dextrose broth and potato dextrose agar plates were used. The treated cultures were then incubated for 24 h at 37 °C and pathogen growth was measured by absorbance at 600 nm. Four replicas were included for each dAMP concentration. Each MIC was assigned to the lowest test agent concentration resulting in at least three out of four wells showing no growth based on an optical density (OD) reading of <0.1.

[3] = system: Aspergillus fumigatus 9648; type: cell-based; conditions: 9648, 24 h
Protocol: as §4

[4] = system: Absidia corymbifera NRRL 6251; type: cell-based; conditions: NRRL 6251, 24 h
Protocol: as §4

[5] = system: E. cloacae 6053; type: cell-based; conditions: 6053, 24 h
Protocol: as §4

[6] = system: Candida krusei Y-27825; type: cell-based; conditions: Y-27825, 24 h
Protocol: as §4

[7] = system: Candida parapsilosis Y-1761; type: cell-based; conditions: Y-1761, 24 h
Protocol: as §4

[8] = system: Candida albicans Y-326; type: cell-based; conditions: Y-326, 24 h
Protocol: as §4

[9] = system: Aspergillus flavus MYA-1004; type: cell-based; conditions: 24 h
Protocol: as §4

[10] = system: E. cloacae 6054; type: cell-based; conditions: 6054, 24 h
Protocol: as §4

[11] = system: Fusarium solani NRRL 28548; type: cell-based; conditions: NRRL 28548, 24 h
Protocol: as §4

[12] = system: Aspergillus flavus MYA-3651; type: cell-based; conditions: 24 h
Protocol: as §4

[13] = system: Candida krusei Y-27803; type: cell-based; conditions: Y-27803, 24 h
Protocol: as §4

[14] = system: Aspergillus fumigatus 9651; type: cell-based; conditions: 9651, 24 h
Protocol: as §4

[15] = system: Candida albicans Y-6359; type: cell-based; conditions: Y-6359, 24 h
Protocol: as §4

[16] = system: S. epidermis ATCC 51625; type: cell-based; conditions: ATCC 51625, 24 h
Protocol: as §4

[17] = system: Candida parapsilosis Y-1763; type: cell-based; conditions: Y-1763, 24 h
Protocol: as §4

[18] = system: A. baumannii 6838; type: cell-based, Acinetobacter baumannii; conditions: 6838, 24 h
Protocol: as §4

[19] = system: A. baumannii 6043; type: cell-based, Acinetobacter baumannii; conditions: 6043, 24 h
Protocol: as §4

[20] = system: A. baumannii ATCC 17978; type: cell-based, Acinetobacter baumannii; conditions: ATCC 17978, 24 h
Protocol: as §4

[21] = system: K. pneumonia 6069; type: cell-based, Klebsiella pneumoniae; conditions: 24 h
Protocol: as §4

[22] = system: K. pneumonia ATCC 10031; type: cell-based, Klebsiella pneumoniae; conditions: ATCC 10031, 24 h
Protocol: as §4

[23] = system: S. aureus 49525 (Xen36 luciferase); type: cell-based, Staphylococcus aureus; conditions: 8 μg/mL, 60 min incubation, bioluminescence, triplicates from two independent experiments
Source text: as §1, §2, §3

[24] = system: P. aeruginosa 6186; type: cell-based, Pseudomonas aeruginosa; conditions: 6186, 24 h
Protocol: as §4

[25] = system: P. aeruginosa ATCC 19660; type: cell-based, Pseudomonas aeruginosa; conditions: ATCC 19660, 24 h
Protocol: as §4

[26] = system: P. aeruginosa ATCC 27853; type: cell-based, Pseudomonas aeruginosa; conditions: ATCC 27853, 24 h
Protocol: as §4

[27] = system: MRSA ATCC 33592; type: cell-based, Staphylococcus aureus; conditions: ATCC 33592, 24 h
Protocol: as §4

[28] = system: S. aureus 6061; type: cell-based, Staphylococcus aureus; conditions: 6061, 24 h
Protocol: as §4

[29] = system: S. aureus B-767; type: cell-based, Staphylococcus aureus; conditions: B-767, 24 h
Protocol: as §4

[30] = system: MRSA 6313; type: cell-based, Staphylococcus aureus; conditions: 6313, 24 h
Protocol: as §4

[31] = system: MRSA 6381; type: cell-based, Staphylococcus aureus; conditions: 6381, 24 h
Protocol: as §4

[32] = system: vulvovaginal candidiasis infection; conditions: rodent vulvovaginal candidiasis, after three days of daily treatment; cited from earlier work
Source text: The dAMPs RP504, RP554 and RP557 were thus tested for their ability to treat a rodent vulvovaginal candidiasis infection. […] A daily dose with a 2% concentration lowered the CFU/sample by more than 4 logs compared to the con ...

SMILES	MIC against Mucor circinelloides NRRL 3631 [2] [µg/mL]	MIC against Aspergillus fumigatus 9648 [3] [µg/mL]	MIC against Absidia corymbifera NRRL 6251 [4] [µg/mL]	MIC against E. cloacae 6053 [5] [µg/mL]	MIC against Candida krusei Y-27825 [6] [µg/mL]	MIC against Candida parapsilosis Y-1761 [7] [µg/mL]	MIC against Candida albicans Y-326 [8] [µg/mL]	MIC against Aspergillus flavus MYA-1004 [9] [µg/mL]	MIC against E. cloacae 6054 [10] [µg/mL]	MIC against Fusarium solani NRRL 28548 [11] [µg/mL]	MIC against Aspergillus flavus MYA-3651 [12] [µg/mL]	MIC against Candida krusei Y-27803 [13] [µg/mL]	MIC against Aspergillus fumigatus 9651 [14] [µg/mL]	MIC against Candida albicans Y-6359 [15] [µg/mL]	MIC against S. epidermis ATCC 51625 [16] [µg/mL]	MIC against Candida parapsilosis Y-1763 [17] [µg/mL]	MIC against A. baumannii 6838 [18] [µg/mL]	MIC against A. baumannii 6043 [19] [µg/mL]	MIC against A. baumannii ATCC 17978 [20] [µg/mL]	MIC against K. pneumonia 6069 [21] [µg/mL]	further results
CC[C@H](C)[C@H](NC(=O)[C@H](CCCCN)NC(=O)[C@H](CC(C)C)NC(=O)[C@H](CCCN)NC(=O)[C@H](CC(C)C)NC(=O)[C@H](CCCNC(=N)N)NC(=O)[C@H](C)NC(=O)[C@H](CCCNC(=N)N)NC(=O)[C@@H](NC(=O)[C@H](CCCN)NC(=O)[C@H](Cc1ccccc1)NC(=O)[C@H](CCCNC(=N)N)NC(=O)[C@H](C)NC(=O)[C@H](CCCCN)NC(=O)[C@@H](NC(=O)[C@H](CCCN)NC(=O)[C@@H](N)Cc1ccccc1)[C@@H](C)CC)C(C)C)C(N)=O [RP553] (H-F[Orn]IKARF[Orn]VRARL[Orn]LKI-NH2)	64 (≈ 30.9 µM)	128 (≈ 61.8 µM)	2 (≈ 0.965 µM)	4 (≈ 1.93 µM)	32 (≈ 15.4 µM)	64 (≈ 30.9 µM)	64 (≈ 30.9 µM)	128 (≈ 61.8 µM)	2 (≈ 0.965 µM)	2 (≈ 0.965 µM)	128 (≈ 61.8 µM)	32 (≈ 15.4 µM)	64 (≈ 30.9 µM)	64 (≈ 30.9 µM)	2 (≈ 0.965 µM)	32 (≈ 15.4 µM)	8 (≈ 3.86 µM)	16 (≈ 7.72 µM)	4 (≈ 1.93 µM)	4 (≈ 1.93 µM)	P. aeruginosa killing (in words) ([1]; RP553 at 60 min): nearly all; MIC against K. pneumonia ATCC 10031 [22]: 4 µg/mL (≈ 1.93 µM); S. aureus killing [23]: 14%; MIC against P. aeruginosa 6186 [24]: 8 µg/mL (≈ 3.86 µM); MIC against P. aeruginosa ATCC 19660 [25]: 8 µg/mL (≈ 3.86 µM); MIC against P. aeruginosa ATCC 27853 [26]: 4 µg/mL (≈ 1.93 µM); MIC against MRSA ATCC 33592 [27]: 4 µg/mL (≈ 1.93 µM); MIC against S. aureus 6061 [28]: 8 µg/mL (≈ 3.86 µM); MIC against S. aureus B-767 [29]: 4 µg/mL (≈ 1.93 µM); MIC against MRSA 6313 [30]: 4 µg/mL (≈ 1.93 µM); MIC against MRSA 6381 [31]: 8 µg/mL (≈ 3.86 µM)
CC[C@H](C)[C@H](NC(=O)CNC(=O)CNC(=O)[C@@H]1CSSC[C@H](NC(=O)CNC(=O)CNC(=O)[C@H](CC(C)C)NC(=O)[C@H](CCCN)NC(=O)[C@H](C)NC(=O)[C@H](CCCN)NC(=O)[C@@H](NC(=O)[C@H](CCCN)NC(=O)[C@@H](N)Cc2ccccc2)[C@@H](C)CC)C(=O)N[C@@H](CC(C)C)C(=O)NCC(=O)N[C@@H](CCCN)C(=O)N[C@@H](Cc2ccccc2)C(=O)N1)C(=O)N[C@@H](CCCN)C(=O)N[C@@H](C)C(=O)N[C@@H](CCCN)C(=O)N[C@@H](CC(C)C)C(=O)N[C@@H](C)C(=O)N[C@@H](Cc1ccccc1)C(N)=O [RP504] (H-F[Orn]I[Orn]A[Orn]LGGCLG[Orn]FCGGI[Orn]A[Orn]LAF-NH2; disulfide 10-15)	>128	>128	8 (≈ 3.32 µM)	32 (≈ 13.3 µM)	8 (≈ 3.32 µM)	8 (≈ 3.32 µM)	8 (≈ 3.32 µM)	>128	64 (≈ 26.5 µM)	2 (≈ 0.829 µM)	>128	8 (≈ 3.32 µM)	>128	4 (≈ 1.66 µM)	16 (≈ 6.63 µM)	2 (≈ 0.829 µM)	64 (≈ 26.5 µM)	32 (≈ 13.3 µM)	32 (≈ 13.3 µM)	32 (≈ 13.3 µM)	P. aeruginosa destroyed ([1]; 60 min, triplicates from two independent experiments): 25%; MIC against K. pneumonia ATCC 10031 [22]: 32 µg/mL (≈ 13.3 µM); S. aureus killing [23]: 13%; MIC against P. aeruginosa 6186 [24]: 16 µg/mL (≈ 6.63 µM); MIC against P. aeruginosa ATCC 19660 [25]: 16 µg/mL (≈ 6.63 µM); MIC against P. aeruginosa ATCC 27853 [26]: 16 µg/mL (≈ 6.63 µM); reduction of CFU/tissue sample [32]: ≥ 2.5 logs; MIC against MRSA ATCC 33592 [27]: 32 µg/mL (≈ 13.3 µM); MIC against S. aureus 6061 [28]: 64 µg/mL (≈ 26.5 µM); MIC against S. aureus B-767 [29]: 32 µg/mL (≈ 13.3 µM); MIC against MRSA 6313 [30]: 64 µg/mL (≈ 26.5 µM); MIC against MRSA 6381 [31]: 64 µg/mL (≈ 26.5 µM)
